Measurements: patent US20070021450A1, “Indanylamino uracils and their use as antioxidants and neuroprotectants” (priority 2004, published 2007)
Each block holds one molecule with its values, some of them ahead of it.

Tests used:
[1] = Chemical chemiluminescence (without cells): Luminol+SIN-1+selenite+BSA; set-up: concentration or dose not given beside the values; details: compared to ascorbic acid
From the text: Luminescence was generated in vials containing the following compounds: Luminol+SIN-1(generator of NO radicals)+selenite+BSA. This reaction is inhibited by scavengers of peroxynitrites, as well as scavengers of NO and O2 free radicals.

human red blood cells = assay: Hypochlorite (HOCl) hemolysis of human red blood cells; format: cell-based; details: activity compared to ascorbic acid
Method: Hypochlorite (HOCl) hemolysis of human red blood cells. The reaction is based on the ability of O2 radicals to lyse red blood cells. Antioxidant compounds such as ascorbic acid and 4-hydroxy-2,2,6,6-tetramethyl-piperidine-1-oxyl (TEMPOL) prevent membrane damage in a dose dependent manner. All compounds were dissolved at a concentration of 5 mg/ml and aliquots were tested for their ability to prevent lysis.

neutrophils = assay: PMA-induced oxidative burst in neutrophils (DCFH, FACS); format: cell-based; details: PMA 10 ng/ml 30 min, compared to ascorbic acid
Method: PMA-induced oxidative burst in neutrophils: The cells were activated with PMA (10 ng/ml) for 30 min and incubated with 2,7-dichlorodihydrofluorescin diacetate (DCFH), which, in the presence of O2 radicals and peroxynitrites, is converted to a fluorescent compound. The fluorescent cells are detected in a cell sorter (FACS).

[2] = Oxidation potential by cyclic voltametry; format: physicochemical; details: for oxidation potential (cyclic voltametry), in words: pH 7.2
Method: (§1) Reaction with 1,1-diphenyl-2-picrylhydrazyl (DPPNH) is indicative of radical scavenging ability. The compounds were mixed with DPPNH (in equimolar amounts) and the consumption rate of DPPNH was measured. Compounds 3 and 4 reacted instantaneously, consuming 70% and 20% of DPPNH respectively (Table 2). The oxidation potential of the compounds was measured by cyclic voltametry.

[3] = Reaction with 1,1-diphenyl-2-picrylhydrazyl (DPPNH), radical scavenging; format: physicochemical; details: equimolar amounts; for DPPNH consumed: reacted instantaneously; for DPPNH: radical scavenging, grades 0 to +++, key not given
Method: as §1

[4] = tested on: EAE (MSCH emulsion induction); assay: EAE in CSJL mice, acute model (MSCH/CFA induction); format: in vivo; details: for Mortality / Incidence: 30 days, CSJL mice; for Mean Duration: duration of disease; for % inhibition 3: inhibition of GMS vs control; for % inhibition 2: inhibition of MMS vs control; for % inhibition 1: inhibition of incidence vs control; for GMS value: mean group score; for MMS value: mean maximal score
[5] = tested on: EAE (PLP 139-151 challenge); assay: PLP induced experimental allergic encephalomyelitis (EAE) in SJL mice; format: in vivo; set-up: key to Mean maximal score / Mean score (group mean score): clinical score 0 = no signs to 6 = death; details: for effect on EAE, in words: 50 mg/kg/day po
Method: Female SJL mice (12 weeks) were inoculated with the encephalitogenic peptide of proteolipid protein (PLP 139-151) synthesized to a purity of 70% by Sigma (Israel). 150 μg of the peptide were emulsified in complete Freund's adjuvant (CFA) (Difco laboratories), supplemented with killed mycobacteria (5 mg/ml) and pertussis toxin (200 ng) (Sigma), given subcutaneously at day of inoculation only.
Mice were kept SPF conditions and given water and food ad libitum. Mice were daily observed for clinical signs from day 10 to day 18-21 post inoculation.
The clinical score used is as follows: 0—no clinical signs; 0.5—loss of right reflex; 1—distal limp tail; 2—complete limp tail; 3—ataxia; 4—early paralysis (one hind limb); 5—complete hind legs paralysis and moribund state; 6—death.
Compounds were dissolved in 2-hydroxypropyl beta cyclodextrin (40% water solution). Treatment started at day 1 post inoculation. The compounds (50 mg/kg) and vehicle were given orally by gavage every day until day 20 post inoculation.
Compounds 6 and 7 were given orally to mice challenged with PLP, at a dose of 50 mg/kg/day, p.o. The results are presented in Table 3a and in FIGS. 2 and 3. The effect of Compound 6 on all parameters of the disease was more pronounced as compared to the control group.

[6] = tested on: EAE (PLP 139-151 challenge); assay: as above; format: in vivo; details: single dose daily, po
EAE = assay: Treatment of EAE with TEMPOL (FIG. 1); format: in vivo, mice; details: Tempol 100 mg and 200 mg groups
From the text: The dosage of TEMPOL used here was […] higher than the dosages of compounds 6 and 7 below. The experiments were terminated arbitrarily at day 18 post-immunization. The course of EAE in different groups of animals varies. Consequently, recovery time is variable, typically by two or three days.

[7] = 25.0 mg/kg × 2 per day (single dose on weekends), oral
[8] = Table 3a: 50 mg/kg/day po, PLP challenge, mean ± SEM
[9] = Table 3a: 50 mg/kg/day po, single dose daily, PLP challenge
[10] = Table 3b: 12.5 mg/kg, single dose daily, po
[11] = Table 3b: 50 mg/kg, single dose daily, po
[12] = Table 3b: 50 mg/kg, single dose daily, po, only mice that develop disease
[13] = Table 3b: 100 mg/kg, single dose daily, po

Structure (SMILES): CC1(C)CC(O)CC(C)(C)N1 [Tetramethyl-4-piperidinol, reference compound]
% Chemiluminescence inhibition [1]: 1.2% | HOCl % lysis (human red blood cells): 0% | PMA % of cells activated (neutrophils): 30%

melting point: > 150 °C
Structure (SMILES): Nc1c(NC2CCc3ccccc32)[nH]c(=O)[nH]c1=O (centres unmarked) [Compound 4, 5-amino-6-(indan-1-ylamino)-1H-pyrimidine-2,4-dione]
Cyclic voltametry - AW ([2]; anodic wave, grades 0 to +++, key not given): 0 | DPPNH consumed [3]: 20%

Structure (SMILES): CN(C)c1ccc2c(c1)C(Nc1cc(=O)[nH]c(=O)[nH]1)CC2.Cl (centres unmarked) [Compound 7, 6-(6-dimethylamino-indan-1-ylamino)-1H-pyrimidine-2,4-dione HCl]
Mortality [4, 7]: 8/10 | Incidence ([4]; 25.0 mg/kg × 2 per day, oral): 8/10 | Incidence ([4]; 50.0 mg/kg once a day, oral): 7/10 | Mortality ([4]; 50.0 mg/kg once a day, oral): 7/10 | Mean Duration ([4]; 25.0 mg/kg × 2, oral): 13.9 ± 7.5 days | Mean Duration ([4]; 50.0 mg/kg once a day, oral): 12.7 ± 8.8 days | % inhibition 3 ([4]; 25.0 mg/kg × 2, oral): 9.4% | % inhibition 3 ([4]; 50.0 mg/kg once a day, oral): 15.6% | % inhibition 2 ([4]; 25.0 mg/kg × 2, oral): 2.4% | % inhibition 2 ([4]; 50.0 mg/kg once a day, oral): 14.6% | % inhibition 1 ([4]; 25.0 mg/kg × 2, oral): 20.0% | % inhibition 1 ([4]; 50.0 mg/kg once a day, oral): 30.0% | GMS value ([4]; 25.0 mg/kg × 2, oral): 2.9 ± 1.6 | GMS value ([4]; 50.0 mg/kg once a day, oral): 2.7 ± 1.9 | MMS value ([4]; 25.0 mg/kg × 2, oral): 4.0 ± 2.1 | MMS value ([4]; 50.0 mg/kg once a day, oral): 3.5 ± 2.4 | % Chemiluminescence inhibition [1]: 62% | HOCl % lysis (human red blood cells): 55% | effect on EAE, in words ([5]; PLP challenge): significant beneficial effect on EAE | Mean day of onset [5, 8]: 14.8 ± 0.94 | Mean disease duration [5, 8]: 4.1 ± 0.84 | Mean maximal score [5, 8]: 4.3 ± 0.9 | Mean score (group mean score) [5, 8]: 1.6 ± 0.27 | (# dead) [5, 9]: (4) | Incidence [5, 9]: 11/14

Structure (SMILES): O=c1cc(NC2CCc3ccccc32)[nH]c(=O)[nH]1 (centres unmarked) [Compound 5, 6-(indan-1-ylamino)-1H-pyrimidine-2,4-dione]
% Chemiluminescence inhibition [1]: 75% | oxidation potential (cyclic voltametry), in words [2]: reducing action, but to a lesser extent than compound 3 | DPPNH [3]: 0 | HOCl % lysis (human red blood cells): 100% | Mean disease duration ([6]; Table 3b: 12.5 mg/kg): 6.06 ± 1.7 | Mean score ([6]; Table 3b: 12.5 mg/kg): 3.8 ± 0.35 | Mean day of onset ([6]; Table 3b: 12.5 mg/kg, only mice that develop disease): 12 ± 0.68 | Mean disease duration ([6]; Table 3b: 100 mg/kg): 4.4 ± 1.7 | PMA % of cells activated (neutrophils): 80% | Incidence [5, 10]: 18/18 | Mean maximal score [5, 10]: 4.5 | Incidence [5, 11]: 14/16 | Mean disease duration [5, 11]: 5.64 ± 1.55 | Mean maximal score [5, 11]: 5 | Mean score [5, 11]: 3.48 ± 0.3 | Mean day of onset [5, 12]: 12.9 ± 1.35 | Incidence [5, 13]: 5/5 | Mean maximal score [5, 13]: 5 | Mean score [5, 13]: 3.2 ± 0.25 | Mean day of onset ([5]; Table 3b:, single dose daily, po, only mice that develop disease): 11.8 ± 1.1

Structure (SMILES): CC1(C)CC(O)CC(C)(C)N1O [N-Hydroxy-tetramethyl-4-piperidinol, reference compound]
% Chemiluminescence inhibition [1]: 42% | HOCl % lysis (human red blood cells): 52% | PMA % of cells activated (neutrophils): 60%

Structure (SMILES): CC1(C)CC(O)CC(C)(C)N1[O] [4-hydroxy-2,2,6,6-tetramethyl-piperidine-1-oxyl, reference compound]
manifestation of clinical signs of EAE, in words (EAE): has the ability to inhibit the manifestation of clinical signs of EAE | % Chemiluminescence inhibition [1]: 78% | HOCl % lysis (human red blood cells): 50% | PMA % of cells activated (neutrophils): 80%

melting point: 218 °C (dec.)
Structure (SMILES): Nc1c(N)n(C2CCc3ccccc32)c(=O)[nH]c1=O (centres unmarked) [Compound 3, 5,6-diamino-1-indan-1-yl-1H-pyrimidine-2,4-dione]
% Chemiluminescence inhibition [1]: 38% | oxidation potential (cyclic voltametry), in words [2]: strong electron donor activity | DPPNH consumed [3]: 70% | HOCl % lysis (human red blood cells): 72% | PMA % of cells activated (neutrophils): 30%

Structure (SMILES): Nc1cc(=O)[nH]c(=O)n1C1CCc2ccccc21 (centres unmarked) [Compound 1, 6-amino-1-indan-1-yl-1H-pyrimidine-2,4-dione]
% Chemiluminescence inhibition [1]: 0% | oxidation potential (cyclic voltametry), in words [2]: reducing action, but to a lesser extent than compound 3 | DPPNH [3]: 0 | HOCl % lysis (human red blood cells): 75% | PMA % of cells activated (neutrophils): 0% | Incidence [5, 11]: 6/8 | Mean disease duration [5, 11]: 5.57 ± 1.72 | Mean maximal score [5, 11]: 4.2 | Mean score [5, 11]: 3.4 ± 0.2 | Mean day of onset [5, 12]: 12.5 ± 0.7

Structure (SMILES): CN(C)c1cccc2c1CCC2Nc1cc(=O)[nH]c(=O)[nH]1.Cl (centres unmarked) [Compound 6, 6-(4-dimethylamino-indan-1-ylamino)-1H-pyrimidine-2,4-dione HCl]
Mortality [4, 7]: 4/10 | Incidence ([4]; 25.0 mg/kg × 2 per day, oral): 7/10 | Incidence ([4]; 50.0 mg/kg once a day, oral): 7/10 | Mortality ([4]; 50.0 mg/kg once a day, oral): 5/10 | Mean Duration ([4]; 25.0 mg/kg × 2, oral): 11.1 ± 8.6 days | Mean Duration ([4]; 50.0 mg/kg once a day, oral): 11.3 ± 8.5 days | % inhibition 3 ([4]; 25.0 mg/kg × 2, oral): 40.6% | % inhibition 3 ([4]; 50.0 mg/kg once a day, oral): 31.3% | % inhibition 2 ([4]; 25.0 mg/kg × 2, oral): 34.1% | % inhibition 2 ([4]; 50.0 mg/kg once a day, oral): 26.8% | % inhibition 1 ([4]; 25.0 mg/kg × 2, oral): 30.0% | % inhibition 1 ([4]; 50.0 mg/kg once a day, oral): 30.0% | GMS value ([4]; 25.0 mg/kg × 2, oral): 1.9 ± 1.9 | GMS value ([4]; 50.0 mg/kg once a day, oral): 2.2 ± 1.8 | MMS value ([4]; 25.0 mg/kg × 2, oral): 2.7 ± 2.2 | MMS value ([4]; 50.0 mg/kg once a day, oral): 3.0 ± 2.3 | % Chemiluminescence inhibition [1]: 56% | HOCl % lysis (human red blood cells): 44% | effect on EAE, in words ([5]; PLP challenge): significant beneficial effect on EAE | (# dead) [5, 9]: (4) | Incidence [5, 9]: 10/14

Structure (SMILES): O=C1O[C@H]([C@@H](O)CO)C(O)=C1O [Ascorbic acid, reference compound]
% Chemiluminescence inhibition [1]: 100% | HOCl % lysis (human red blood cells): 100% | PMA % of cells activated (neutrophils): 100%
